# Reference: US10351601B2, “CXCR4 antagonists and methods of use” (Mainline Biosciences, priority 2016, dated 2019)
# Like-named read-outs stand apart in the source and are kept apart here. Bridge positions count the residues as written; N and C are the ends. Square brackets hold non-standard residues; d marks the D form. Peptide text beside a SMILES is read from it. * marks the point of attachment. 2Nal = N[C@@H](Cc1ccc2ccccc2c1)C(=O)O; Lys(iPr) = CC(C)NCCCC[C@H](N)C(=O)O; hCys = N[C@@H](CCS)C(=O)O; Bz = O=C(c1ccccc1)*; Mpa = O=C(O)CCS
# Biological target: T1, Human chemokine receptor CXCR4 (Homo sapiens, UniProt P61073)
# T1 construct: expressed in transfected cells; host or cells: Chem-1 cells (membranes)
# Assay: Human CXCR4/125I-SDF-1α binding inhibition assay
# Description: “Ki” values are calculated using IC50 values determined in the CXCR4/^125I-SDF-1α binding assay described below by employing equation 7.22 of Enzymes, A Practical Introduction to Structure, Mechanism, and Data Analysis, Robert A. Copeland, Wiley-VCH, New York, 1996, page 207.
# Human CXCR4/^125I-SDF-1α Binding Inhibition Assay:
# Human chemokine receptor CXCR4 expressed in Chem-1 cells were used in modified HEPES buffer pH 7.4. A […] (Membrane protein may change from lot to lot, the concentration used were adjusted as necessary), aliquot was incubated with 0.03 nM [^125I]SDF-1α for 90 minutes at 25° C. Non-specific binding was estimated in the presence of 30 nM SDF-la. Membranes were filtered and washed, filters were then counted to determine [^125I]SDF-1α specifically bound. Compounds were screened starting at 10 μM with 11-point dilutions (Valenzuela-Fernandez A, et al. J Biol Chem. 277(18):15677, 2002).
# [1] = calculated from IC50 of the CXCR4/125I-SDF-1α binding assay, read-out: Binding Kb
# T1 sequence (P61073 whole entry): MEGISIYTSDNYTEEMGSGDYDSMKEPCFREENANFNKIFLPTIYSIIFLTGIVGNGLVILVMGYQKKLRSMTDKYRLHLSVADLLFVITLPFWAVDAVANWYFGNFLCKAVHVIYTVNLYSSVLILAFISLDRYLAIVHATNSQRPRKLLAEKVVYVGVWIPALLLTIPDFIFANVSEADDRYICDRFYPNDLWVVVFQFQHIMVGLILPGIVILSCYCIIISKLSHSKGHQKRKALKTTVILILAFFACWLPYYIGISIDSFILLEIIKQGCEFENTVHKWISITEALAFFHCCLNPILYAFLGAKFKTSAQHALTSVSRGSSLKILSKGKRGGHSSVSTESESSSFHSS
smiles,measurement,setting,value
"CC(C)NCCCC[C@@H]1NC(=O)[C@H](Cc2ccc(O)cc2)NC(=O)CCSSC[C@@H](C(=O)N[C@H](CCCNC(=N)N)C(=O)NCC(=O)N[C@H](Cc2ccccc2)C(=O)NCC(N)=O)NC(=O)CNC(=O)[C@H](Cc2ccc3ccccc3c2)NC(=O)[C@@H](CCCNC(=N)N)NC1=O [Example 4, Cyclo[Mpa-Tyr-Lys(iPr)-(D-Arg)-2Nal-Gly-Cys]-(D-Arg)-Gly-(D-Phe)-Gly-NH2] ([Mpa]Y[Lys(iPr)][dR][2Nal]GC[dR]G[dF]G-NH2; disulfide 1-7)",Kb,[1],0.21 nM
"N=C(N)NCCC[C@@H]1NC(=O)CCSSC[C@@H](C(=O)N[C@@H](CCCNC(=N)N)C(=O)NCC(=O)N[C@H](Cc2ccccc2)C(=O)NCC(N)=O)NC(=O)CNC(=O)[C@H](Cc2ccc3ccccc3c2)NC(=O)[C@H](CCCNC(=N)N)NC(=O)[C@H](Cc2ccc(O)cc2)NC1=O [Example 5, Cyclo[Mpa-Arg-Tyr-Arg-2Nal-Gly-Cys]-Arg-Gly-(D-Phe)-Gly-NH2] ([Mpa]RYR[2Nal]GCRG[dF]G-NH2; disulfide 1-7)",IC50,"CXCR4 expressed in Chem-1 cells, 0.03 nM [125I]SDF-1α, 90 minutes at 25° C., HEPES buffer pH 7.4, read-out: Binding IC50",> 1000 nM
same,Kb,[1],> 1000 nM
"CC(C)NCCCC[C@H](NC(=O)[C@@H]1CCSSC[C@H](NC(=O)c2ccccc2)C(=O)N[C@@H](Cc2ccc(O)cc2)C(=O)N[C@@H](CCCCNC(C)C)C(=O)N[C@H](CCCNC(=N)N)C(=O)N[C@@H](Cc2ccc3ccccc3c2)C(=O)NCC(=O)N1)C(=O)NCC(N)=O [Example 12, Benzoyl-cyclo[Cys-Tyr-Lys(iPr)-(D-Arg)-2Nal-Gly-hCys]-Lys(iPr)-Gly-NH2] (Bz-CY[Lys(iPr)][dR][2Nal]G[hCys][Lys(iPr)]G-NH2; disulfide 1-7)",Kb,,0.21 nM
"CCNC(=O)CNC(=O)[C@H](CCCCNC(C)C)NC(=O)[C@@H]1CSSCC[C@H](NC(=O)c2ccccc2)C(=O)N[C@@H](Cc2ccc(O)cc2)C(=O)N[C@@H](CCCCNC(C)C)C(=O)N[C@H](CCCNC(=N)N)C(=O)N[C@@H](Cc2ccc3ccccc3c2)C(=O)NCC(=O)N1 [Example 14, Benzoyl-cyclo[hCys-Tyr-Lys(iPr)-(D-Arg)-2Nal-Gly-Cys]-Lys(iPr)-Gly-NH(Et)] (Bz-[hCys]Y[Lys(iPr)][dR][2Nal]GC[Lys(iPr)]G-NHEt; disulfide 1-7)",IC50,,1.3 nM
same,Kb,,0.39 nM
